In patent US4521422A, “Aryl and heteroaryl[7-(aryl and heteroaryl)pyrazolo[1,5-a]pyrimidin-3-yl]methanones” (American Cyanamid Company, priority 1984, dated 1985):

test system: Clonic Seizures Caused by Pentylenetetrazole in Rats; experiment: Protection against clonic seizures caused by pentylenetetrazole in rats; type: in vivo; settings: Rattus norvegicus; dose 25.0 mg/kg, oral or i.p.; pentylenetetrazole 23 mg/kg i.v. at 30 or 60 min; read-out: % of Rats Protected
Method: The anti-anxiety and anticonvulsant properties of the novel compounds of the present invention have been established in a test which indicates anxiolytic and antiepileptic activity by the measure of protection from convulsions resulting from the administration of pentylenetetrazole. Single or graded dose levels of the test compounds were administered orally or intraperitoneally in a 2% starch vehicle, containing 0.5% v/v polyethylene glycol and one drop of Polysorbate 80 to groups of at least 4 rats. At 30 or 60 minutes, the rats were treated intravenously with pentylenetetrazole at a dose of 23 mg/kg of body weight. This dose is estimated to cause clonic seizures in 99% of unprotected rats. It has been reported [R. T. Hill and D. H. Tedeschi, "Animal Testing and Screening Procedures in Evaluating Psychotropic Drugs" in "An Introduction to Psychopharmacology", Eds. R. R. Rech and K. E. Moore, Raven Press, New York, pp 237-288 (1971)] that there is a high degree of correlation between antagonism of pentylenetetrazole seizures in rats and anti-anxietyor anticonvulsant effects in higher warm-blooded animals.

| Compound | responders at 25 mg/kg |
| --- | --- |
| COc1ccccc1C(=O)c1cnn2c(-c3ccc(F)cc3)ccnc12 [[7-(4-fluorophenyl)pyrazolo[1,5-a]pyrimidin-3-yl](2-methoxyphenyl)methanone] | 50% |
| O=C(c1cccc(Cl)c1)c1cnn2c(-c3ccc(F)cc3)ccnc12 [(3-chlorophenyl)[7-(4-fluorophenyl)pyrazolo[1,5-a]pyrimidin-3-yl]methanone] | 25% |
| COc1ccccc1C(=O)c1cnn2c(-c3cccnc3)ccnc12 [(2-methoxyphenyl)[7-(3-pyridinyl)pyrazolo[1,5-a]pyrimidin-3-yl]methanone] | 75% |
| O=C(c1ccccc1)c1cnn2c(-c3ccc[n+]([O-])c3)ccnc12 [Phenyl[7-(3-pyridinyl)pyrazolo[1,5-a]pyrimidin-3-yl]methanone, pyridine-1-oxide] | 25% |
| O=C(c1cccc(Cl)c1)c1cnn2c(-c3cccnc3)ccnc12 [(3-chlorophenyl)[7-(3-pyridinyl)pyrazolo[1,5-a]pyrimidin-3-yl]methanone] | 50% |
| COc1ccc(C(=O)c2cnn3c(-c4cc(OC)c(OC)c(OC)c4)ccnc23)cc1OC [(3,4-dimethoxyphenyl)[7-(3,4,5-trimethoxyphenyl)pyrazolo[1,5-a]pyrimidin-3-yl]methanone] | 75% |
| CSc1ccc(-c2ccnc3c(C(=O)c4ccccc4)cnn23)cc1 [[7-[4-(methylthio)phenyl]pyrazolo[1,5-a]pyrimidin-3-yl]phenylmethanone] | 50% |
| O=C(c1ccsc1)c1cnn2c(-c3cccc(C(F)(F)F)c3)ccnc12 [3-thienyl[7-[3-(trifluoromethyl)phenyl]pyrazolo[1,5-a]pyrimidin-3-yl]methanone] | 75% |
| O=C(c1ccc(C(F)(F)F)cc1)c1cnn2c(-c3ccc(C(F)(F)F)cc3)ccnc12 [[4-(trifluoromethyl)phenyl][7-[4-(trifluoromethyl)phenyl]pyrazolo[1,5-a]pyrimidin-3-yl]methanone] | 25% |
| COc1cc(C(=O)c2cnn3c(-c4ccncc4)ccnc23)cc(OC)c1OC [[7-(4-pyridinyl)pyrazolo[1,5-a]pyrimidin-3-yl](3,4,5-trimethoxyphenyl)methanone] | 25% |
| O=C(c1ccncc1)c1cnn2c(-c3ccc(F)cc3)ccnc12 [[7-(4-fluorophenyl)pyrazolo[1,5-a]pyrimidin-3-yl]-4-pyridinylmethanone] | 75% |
| Cc1cc(-c2cccc(C(F)(F)F)c2)n2ncc(C(=O)c3ccc(Cl)cc3)c2n1 [(4-chlorophenyl)[5-methyl-7-[3-(trifluoromethyl)phenyl]pyrazolo[1,5-a]pyrimidin-3-yl]methanone] | 25% |
| Cc1ccccc1C(=O)c1cnn2c(-c3ccc(C(F)(F)F)cc3)ccnc12 [(2-methylphenyl)[7-[4-(trifluoromethyl)phenyl]pyrazolo[1,5-a]pyrimidin-3-yl]methanone] | 25% |
| CCOc1ccc(C(=O)c2cnn3c(-c4cccnc4)ccnc23)cc1 [(4-ethoxyphenyl)[7-(3-pyridinyl)pyrazolo[1,5-a]pyrimidin-3-yl]methanone] | 25% |
| O=C(c1cccs1)c1cnn2c(-c3ccc(C(F)(F)F)cc3)ccnc12 [2-thienyl[7-[4-(trifluoromethyl)phenyl]pyrazolo[1,5-a]pyrimidin-3-yl]methanone] | 25% |
| COc1cc(C(=O)c2cnn3c(-c4cccnc4)ccnc23)cc(OC)c1OC [[7-(3-pyridinyl)pyrazolo[1,5-a]pyrimidin-3-yl](3,4,5-trimethoxyphenyl)methanone] | 25% |
| Cc1ccccc1C(=O)c1cnn2c(-c3ccncc3)ccnc12 [(2-methylphenyl)[7-(4-pyridinyl)pyrazolo[1,5-a]pyrimidin-3-yl]methanone] | 25% |
| O=C(c1ccc(C(F)(F)F)cc1)c1cnn2c(-c3ccc(Cl)c(Cl)c3)ccnc12 [[7-(3,4-dichlorophenyl)pyrazolo[1,5-a]pyrimidin-3-yl][4-(trifluoromethyl)phenyl]methanone] | 50% |
| N#Cc1ccc(-c2ccnc3c(C(=O)c4ccc(F)cc4)cnn23)cc1 [4-[3-(4-fluorobenzoyl)pyrazolo[1,5-a]pyrimidin-7-yl]benzonitrile] | 50% |
| Cc1cnc2c(C(=O)c3ccc(F)cc3)cnn2c1-c1cccnc1 [(4-fluorophenyl)[6-methyl-7-(3-pyridinyl)pyrazolo[1,5-a]pyrimidin-3-yl]methanone] | 75% |
| O=C(c1cc(Cl)ccc1Cl)c1cnn2c(-c3cccnc3)ccnc12 [(2,5-dichlorophenyl)[7-(3-pyridinyl)pyrazolo[1,5-a]pyrimidin-3-yl]methanone] | 25% |
| Cc1ccccc1C(=O)c1cnn2c(-c3cccnc3)ccnc12 [(2-methylphenyl)[7-(3-pyridinyl)pyrazolo[1,5-a]pyrimidin-3-yl]methanone] | 25% |

| Compound | responders at 25 mg/kg |
| --- | --- |
| O=C(c1cccc(C(F)(F)F)c1)c1cnn2c(-c3ccc(F)cc3)ccnc12 [[7-(4-fluorophenyl)pyrazolo[1,5-a]pyrimidin-3-yl][3-(trifluoromethyl)phenyl]methanone] | 25% |
| Cc1nn2c(-c3ccncc3)ccnc2c1C(=O)c1ccccc1 [[2-methyl-7-(4-pyridinyl)pyrazolo[1,5-a]pyrimidin-3-yl]phenylmethanone] | 25% |
| O=C(c1cc(Cl)ccc1Cl)c1cnn2c(-c3ccc(F)cc3)ccnc12 [(2,5-dichlorophenyl)[7-(4-fluorophenyl)pyrazolo[1,5-a]pyrimidin-3-yl]methanone] | 25% |
| O=C(c1ccsc1)c1cnn2c(-c3ccncc3)ccnc12 [[7-(4-pyridinyl)pyrazolo[1,5-a]pyrimidin-3-yl]-3-thienylmethanone] | 50% |
| COc1ccc(C(=O)c2cnn3c(-c4ccc[n+]([O-])c4)ccnc23)cc1 [(4-Methoxyphenyl)[7-(3-pyridinyl)pyrazolo[1,5-a]pyrimidin-3-yl]methanone, pyridine-1-oxide] | 25% |
| Cc1cc(-c2cccc(C(F)(F)F)c2)n2ncc(C(=O)c3ccc(F)cc3)c2n1 [(4-fluorophenyl)[5-methyl-7-[3-(trifluoromethyl)phenyl]pyrazolo[1,5-a]pyrimidin-3-yl]methanone] | 25% |
| O=C(c1ccccn1)c1cnn2c(-c3ccc(C(F)(F)F)cc3)ccnc12 [2-pyridinyl[7-[4-(trifluoromethyl)phenyl]pyrazolo[1,5-a]pyrimidin-3-yl]methanone] | 25% |
| O=C(c1ccc(F)cc1)c1cnn2c(-c3ccc(C(F)(F)F)cc3)ccnc12 [(4-fluorophenyl)[7-[4-(trifluoromethyl)phenyl]pyrazolo[1,5-a]pyrimidin-3-yl]methanone] | 50% |
| O=C(c1ccc2c(c1)OCO2)c1cnn2c(-c3ccncc3)ccnc12 [1,3-benzodioxol-5-yl[7-(4-pyridinyl)pyrazolo[1,5-a]pyrimidin-3-yl]methanone] | 25% |
| O=C(c1cc(Cl)ccc1Cl)c1cnn2c(-c3ccncc3)ccnc12 [(2,5-dichlorophenyl)[7-(4-pyridinyl)pyrazolo[1,5-a]pyrimidin-3-yl]methanone] | 25% |
| Cc1cccc(C(=O)c2cnn3c(-c4ccncc4)ccnc23)c1 [(3-methylphenyl)[7-(4-pyridinyl)pyrazolo[1,5-a]pyrimidin-3-yl]methanone] | 100% |
| CN(C)c1ccc(C(=O)c2cnn3c(-c4ccncc4)ccnc23)cc1 [[4-(dimethylamino)phenyl][7-(4-pyridinyl)pyrazolo[1,5-a]pyrimidin-3-yl]methanone] | 75% |
| Cc1ccc(C(=O)c2cnn3c(-c4cccnc4)ccnc23)s1 [(5-methyl-2-thienyl)[7-(3-pyridinyl)pyrazolo[1,5-a]pyrimidin-3-yl]methanone] | 25% |
| O=C(c1cccs1)c1cnn2c(-c3cccc(F)c3)ccnc12 [[7-(3-fluorophenyl)pyrazolo[1,5-a]pyrimidin-3-yl]-2-thienylmethanone] | 25% |
| O=C(c1cccc(Cl)c1)c1cnn2c(-c3ccncc3)ccnc12 [(3-chlorophenyl)[7-(4-pyridinyl)pyrazolo[1,5-a]pyrimidin-3-yl]methanone] | 50% |
| O=C(c1ccc2ccccc2c1)c1cnn2c(-c3cccnc3)ccnc12 [2-naphthalenyl[7-(3-pyridinyl)pyrazolo[1,5-a]pyrimidin-3-yl]methanone] | 25% |
| O=C(c1ccccc1Cl)c1cnn2c(-c3ccncc3)ccnc12 [(2-chlorophenyl)[7-(4-pyridinyl)pyrazolo[1,5-a]pyrimidin-3-yl]methanone] | 25% |
| COc1ccc(C(=O)c2cnn3c(-c4ccncc4)ccnc23)cc1OC [(3,4-dimethoxyphenyl)[7-(4-pyridinyl)pyrazolo[1,5-a]pyrimidin-3-yl]methanone] | 50% |
| COc1cccc(C(=O)c2cnn3c(-c4ccncc4)ccnc23)c1 [(3-methoxyphenyl)[7-(4-pyridinyl)pyrazolo[1,5-a]pyrimidin-3-yl]methanone] | 50% |
| COc1ccc(C(=O)c2cnn3c(-c4ccncc4)ccnc23)cc1 [(4-methoxyphenyl)[7-(4-pyridinyl)pyrazolo[1,5-a]pyrimidin-3-yl]methanone] | 25% |
| Cc1cnc2c(C(=O)c3ccccc3)cnn2c1-c1cccc(C(F)(F)F)c1 [[6-methyl-7-[3-(trifluoromethyl)phenyl]pyrazolo[1,5-a]pyrimidin-3-yl]phenylmethanone] | 25% |
